Values quoted from earlier work, collected in patent US5229007A (priority 1992, dated 1993).

How the values were obtained:
insect = conditions: in vivo

C/C=C(\C)C(=O)O[C@H]1C[C@@H](OC(C)=O)[C@@]2(C(=O)OC)CO[C@H]3[C@@H](O)[C@@](C)([C@]45O[C@@]4(C)[C@H]4C[C@@H]5O[C@@H]5OC=C[C@@]54O)[C@H]4[C@]1(CO[C@]4(O)C(=O)OC)[C@@H]32 [azadirachtin]
insect growth regulator and feeding deterrent activity (insect): potent insect growth regulator and feeding deterrent
stability in alkaline solutions (alkaline solutions): degraded in alkaline solutions
stability at elevated temperatures (elevated temperatures): decomposes at elevated temperatures
